The source made the active and inactive calls. No cut-off for these calls is given here.
Key:
[1] = molecular target: T1, Serine/threonine-protein kinase mTOR (Homo sapiens, UniProt P42345); assay: Inhibition of flag-tagged truncated human mTOR (1360-2549) expressed in HEK293 cells by DELFIA assay; assay type: cell-based
[2] = system: LNCaP; assay: Cytotoxicity against human LNCAP cells after 3 days by MTS assay; assay type: functional, cell-based; conditions: 72 h
[3] = Metabolic stability in nude mouse microsomes assessed as half life at 1 uM by HPLC-MS/MS analysis; assay type: ADME, Microsome
[4] = molecular target: Phosphatidylinositol 4,5-bisphosphate 3-kinase catalytic subunit alpha isoform (Homo sapiens, UniProt P42336); assay: Inhibition of PI3Kalpha expressed in Escherichia coli by microtiter plate-based fluorescence polarization assay
Chain of Phosphatidylinositol 4,5-bisphosphate 3-kinase catalytic subunit alpha isoform (P42336 whole entry, canonical isoform): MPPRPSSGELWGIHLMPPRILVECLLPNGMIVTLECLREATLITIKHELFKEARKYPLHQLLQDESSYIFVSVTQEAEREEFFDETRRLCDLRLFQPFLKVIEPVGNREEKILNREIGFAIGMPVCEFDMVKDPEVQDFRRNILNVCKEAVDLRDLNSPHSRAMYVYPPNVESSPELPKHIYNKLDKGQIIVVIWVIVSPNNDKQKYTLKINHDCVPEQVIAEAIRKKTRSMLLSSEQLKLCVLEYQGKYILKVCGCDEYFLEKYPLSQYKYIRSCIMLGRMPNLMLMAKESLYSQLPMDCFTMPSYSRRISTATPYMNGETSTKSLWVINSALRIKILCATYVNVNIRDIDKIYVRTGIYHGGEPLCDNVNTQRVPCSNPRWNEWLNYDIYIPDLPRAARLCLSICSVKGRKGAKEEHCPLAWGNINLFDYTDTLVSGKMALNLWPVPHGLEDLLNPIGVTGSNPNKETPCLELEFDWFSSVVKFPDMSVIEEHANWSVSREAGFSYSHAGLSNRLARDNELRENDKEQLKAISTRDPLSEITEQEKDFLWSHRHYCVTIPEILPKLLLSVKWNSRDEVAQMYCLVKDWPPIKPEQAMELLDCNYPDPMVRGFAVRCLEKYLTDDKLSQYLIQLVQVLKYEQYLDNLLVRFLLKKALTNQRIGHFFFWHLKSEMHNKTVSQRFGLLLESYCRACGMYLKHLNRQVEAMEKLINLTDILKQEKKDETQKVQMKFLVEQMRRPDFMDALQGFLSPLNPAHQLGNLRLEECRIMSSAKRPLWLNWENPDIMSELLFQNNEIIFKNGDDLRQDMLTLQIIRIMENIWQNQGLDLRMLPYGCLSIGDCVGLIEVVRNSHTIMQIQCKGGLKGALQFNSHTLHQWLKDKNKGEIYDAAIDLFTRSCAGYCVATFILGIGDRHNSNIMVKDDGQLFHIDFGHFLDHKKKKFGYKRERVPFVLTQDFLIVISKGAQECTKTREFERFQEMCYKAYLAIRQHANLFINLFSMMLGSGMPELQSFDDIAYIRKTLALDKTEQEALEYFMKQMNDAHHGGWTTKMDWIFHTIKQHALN

[5] = system: Mus musculus; assay: Inhibition of mTOR complex 1 in BALB/c nu/nu mouse bearing PTEN-null human PC3MM2 xenograft tumor assessed as suppression of S6K phosphorylation at T389 at 50 mg/kg, ip administered as single dose for 4 hrs; assay type: functional, organism-based; design: dose 50 mg/kg
[6] = system: Mus musculus; assay: Inhibition of mTOR complex 2 in BALB/c nu/nu mouse bearing PTEN-null human PC3MM2 xenograft tumor assessed as suppression of AKT phosphorylation at S473 at 50 mg/kg, ip administered as single dose for 4 hrs; assay type: functional, organism-based; design: dose 50 mg/kg
[7] = system: Mus musculus; assay: Inhibition of PI3K in BALB/c nu/nu mouse bearing PTEN-null human PC3MM2 xenograft tumor assessed as suppression of AKT phosphorylation at T308 at 50 mg/kg, ip administered as single dose for 4 hrs; assay type: functional, organism-based; design: dose 50 mg/kg
[8] = Antitumor activity against human U87MG cells xenografted in BALB/c nu/nu mouse at 50 mg/kg, ip administered once daily for 5 days measured on day 7 relative to control; assay type: functional, U-87MG ATCC; conditions: route intraperitoneal
[9] = Aqueous solubility at pH 3; assay type: physicochemical; conditions: buffer
[10] = system: Mus musculus; assay: Inhibition of mTOR complex 1 in BALB/c nu/nu mouse bearing PTEN-null human PC3MM2 xenograft tumor assessed as suppression of S6K phosphorylation at T389 at 50 mg/kg, ip administered as single dose for 6 hrs; assay type: functional, organism-based; design: dose 50 mg/kg
[11] = system: Mus musculus; assay: Inhibition of mTOR complex 2 in BALB/c nu/nu mouse bearing PTEN-null human PC3MM2 xenograft tumor assessed as suppression of P-AKT phosphorylation at S473 at 50 mg/kg, ip administered as single dose for 4 to 6 hrs; assay type: functional, organism-based; design: dose 50 mg/kg
[12] = molecular target: Tyrosine-protein kinase ABL1 (Homo sapiens, UniProt P00519); assay: Inhibition of ABL1 after 1 hr by mobility shift electrophoresis assay
[13] = molecular target: Aurora kinase B (Homo sapiens, UniProt Q96GD4); assay: Inhibition of Aurora B after 1 hr by mobility shift electrophoresis assay
[14] = molecular target: Cyclin-dependent kinase 1/cyclin B1 (Homo sapiens, UniProt P06493); assay: Inhibition of CDK1/cyclinB after 1 hr by mobility shift electrophoresis assay; assay type: protein-complex assay
[15] = molecular target: Cyclin-dependent kinase 2 (Homo sapiens, UniProt P24941); assay: Inhibition of CDK2/cyclinA after 1 hr by mobility shift electrophoresis assay
[16] = molecular target: Serine/threonine-protein kinase Chk1 (Homo sapiens, UniProt O14757); assay: Inhibition of CHK1 after 1 hr by mobility shift electrophoresis assay
[17] = molecular target: Casein kinase I isoform gamma-1 (Homo sapiens, UniProt Q9HCP0); assay: Inhibition of CK1gamma1 after 1 hr by mobility shift electrophoresis assay
[18] = molecular target: Mitogen-activated protein kinase 1 (Homo sapiens, UniProt P28482); assay: Inhibition of ERK2 after 1 hr by mobility shift electrophoresis assay
[19] = molecular target: Tyrosine-protein kinase Fyn (Homo sapiens, UniProt P06241); assay: Inhibition of FYN after 1 hr by mobility shift electrophoresis assay
[20] = molecular target: Mitogen-activated protein kinase kinase kinase kinase 2 (Homo sapiens, UniProt Q12851); assay: Inhibition of GCK after 1 hr by mobility shift electrophoresis assay
Chain of Mitogen-activated protein kinase kinase kinase kinase 2 (Q12851 whole entry): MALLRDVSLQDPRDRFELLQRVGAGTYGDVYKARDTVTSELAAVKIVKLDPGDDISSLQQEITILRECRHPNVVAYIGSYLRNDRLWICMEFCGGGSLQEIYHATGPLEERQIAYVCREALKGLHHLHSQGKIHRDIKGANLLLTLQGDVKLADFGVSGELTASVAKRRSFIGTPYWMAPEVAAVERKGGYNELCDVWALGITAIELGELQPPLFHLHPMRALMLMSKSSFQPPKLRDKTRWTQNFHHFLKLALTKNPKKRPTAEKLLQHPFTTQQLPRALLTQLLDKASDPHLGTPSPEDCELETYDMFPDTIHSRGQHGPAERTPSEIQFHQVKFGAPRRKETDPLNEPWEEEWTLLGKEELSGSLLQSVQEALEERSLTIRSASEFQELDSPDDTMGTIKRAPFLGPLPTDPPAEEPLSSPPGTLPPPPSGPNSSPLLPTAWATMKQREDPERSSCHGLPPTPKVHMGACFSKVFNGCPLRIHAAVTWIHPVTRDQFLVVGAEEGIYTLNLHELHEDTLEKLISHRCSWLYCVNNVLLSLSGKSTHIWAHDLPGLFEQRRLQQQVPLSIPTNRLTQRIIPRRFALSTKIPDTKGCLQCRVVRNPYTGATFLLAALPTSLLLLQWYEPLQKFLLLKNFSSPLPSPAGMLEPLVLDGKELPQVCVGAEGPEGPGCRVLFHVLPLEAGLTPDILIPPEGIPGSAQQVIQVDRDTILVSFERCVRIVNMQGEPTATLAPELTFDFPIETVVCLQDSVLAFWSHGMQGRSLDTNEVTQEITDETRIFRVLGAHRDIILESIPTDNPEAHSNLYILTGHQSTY

[21] = molecular target: Tyrosine-protein kinase HCK (Homo sapiens, UniProt P08631); assay: Inhibition of HCK after 1 hr by mobility shift electrophoresis assay
[22] = molecular target: Inhibitor of nuclear factor kappa-B kinase subunit alpha (Homo sapiens, UniProt O15111); assay: Inhibition of IKKalpha after 1 hr by mobility shift electrophoresis assay
[23] = molecular target: Vascular endothelial growth factor receptor 2 (Homo sapiens, UniProt P35968); assay: Inhibition of VEGFR2 after 1 hr by mobility shift electrophoresis assay
[24] = molecular target: Tyrosine-protein kinase Lyn (Homo sapiens, UniProt P07948); assay: Inhibition of LYN after 1 hr by mobility shift electrophoresis assay
[25] = molecular target: MAP kinase-activated protein kinase 2 (Homo sapiens, UniProt P49137); assay: Inhibition of MK2 after 1 hr by mobility shift electrophoresis assay
[26] = molecular target: Mitogen-activated protein kinase 14 (Homo sapiens, UniProt Q16539); assay: Inhibition of p38alpha after 1 hr by mobility shift electrophoresis assay
[27] = molecular target: Platelet-derived growth factor receptor alpha (Homo sapiens, UniProt P16234); assay: Inhibition of PDGFRalpha after 1 hr by mobility shift electrophoresis assay
Chain of Platelet-derived growth factor receptor alpha (P16234 whole entry): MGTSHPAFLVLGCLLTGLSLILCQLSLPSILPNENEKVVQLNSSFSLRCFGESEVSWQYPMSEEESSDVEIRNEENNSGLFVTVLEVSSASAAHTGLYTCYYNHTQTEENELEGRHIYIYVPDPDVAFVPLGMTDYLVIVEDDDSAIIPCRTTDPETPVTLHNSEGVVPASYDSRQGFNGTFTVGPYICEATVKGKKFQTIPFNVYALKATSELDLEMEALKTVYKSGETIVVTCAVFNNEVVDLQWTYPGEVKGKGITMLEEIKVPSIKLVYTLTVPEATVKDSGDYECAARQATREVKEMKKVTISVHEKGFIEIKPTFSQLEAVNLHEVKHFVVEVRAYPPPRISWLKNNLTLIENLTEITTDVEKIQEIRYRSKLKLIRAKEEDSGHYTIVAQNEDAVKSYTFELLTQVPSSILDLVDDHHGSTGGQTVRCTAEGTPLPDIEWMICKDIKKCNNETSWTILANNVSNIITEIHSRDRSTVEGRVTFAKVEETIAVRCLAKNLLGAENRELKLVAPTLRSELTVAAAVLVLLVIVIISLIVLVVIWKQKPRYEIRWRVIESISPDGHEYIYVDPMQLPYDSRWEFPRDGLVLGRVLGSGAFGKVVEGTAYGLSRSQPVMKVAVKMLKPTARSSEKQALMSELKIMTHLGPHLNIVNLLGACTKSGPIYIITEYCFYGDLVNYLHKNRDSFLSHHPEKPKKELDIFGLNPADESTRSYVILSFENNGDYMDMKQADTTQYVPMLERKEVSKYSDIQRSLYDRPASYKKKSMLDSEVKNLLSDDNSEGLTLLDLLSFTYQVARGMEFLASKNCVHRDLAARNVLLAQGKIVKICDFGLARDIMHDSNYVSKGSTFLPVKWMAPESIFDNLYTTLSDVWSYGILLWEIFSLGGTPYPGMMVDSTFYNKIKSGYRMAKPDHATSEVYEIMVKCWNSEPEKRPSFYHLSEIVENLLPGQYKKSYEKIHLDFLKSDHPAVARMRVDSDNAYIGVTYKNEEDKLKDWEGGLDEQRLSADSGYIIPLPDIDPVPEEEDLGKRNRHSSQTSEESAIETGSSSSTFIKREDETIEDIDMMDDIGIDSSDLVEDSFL

[28] = Inhibition of PKA after 1 hr by mobility shift electrophoresis assay
[29] = molecular target: RAC-alpha serine/threonine-protein kinase (Homo sapiens, UniProt P31749); assay: Inhibition of PKBalpha after 1 hr by mobility shift electrophoresis assay
Chain of RAC-alpha serine/threonine-protein kinase (P31749 whole entry): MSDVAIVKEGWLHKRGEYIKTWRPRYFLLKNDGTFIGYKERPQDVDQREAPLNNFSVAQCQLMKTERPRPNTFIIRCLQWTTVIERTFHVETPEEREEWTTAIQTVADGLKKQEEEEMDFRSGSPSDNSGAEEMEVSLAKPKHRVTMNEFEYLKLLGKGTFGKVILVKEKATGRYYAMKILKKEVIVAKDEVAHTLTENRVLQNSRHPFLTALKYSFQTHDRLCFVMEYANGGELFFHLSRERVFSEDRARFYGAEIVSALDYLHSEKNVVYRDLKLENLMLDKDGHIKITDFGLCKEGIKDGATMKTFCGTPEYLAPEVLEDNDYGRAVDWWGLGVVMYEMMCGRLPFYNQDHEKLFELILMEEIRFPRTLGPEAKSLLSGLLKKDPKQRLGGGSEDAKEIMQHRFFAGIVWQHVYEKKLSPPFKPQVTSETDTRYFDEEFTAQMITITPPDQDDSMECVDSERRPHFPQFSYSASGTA

[30] = Antitumor activity against human U87MG cells xenografted in BALB/c nu/nu mouse at 50 mg/kg, ip administered twice daily for 5 days measured on day 7 relative to control; assay type: functional, U-87MG ATCC; conditions: route intraperitoneal
[31] = molecular target: T1, Serine/threonine-protein kinase mTOR; assay: Inhibition of mTOR complex 1 in human PC3MM2 cells assessed as suppression of S6K phosphorylation at T389 treated for 6 hrs by immunoblotting analysis; assay type: cell-based
[32] = molecular target: T1, Serine/threonine-protein kinase mTOR; assay: Inhibition of mTOR complex 2 in human PC3MM2 cells assessed as suppression of P-AKT phosphorylation at S473 treated for 6 hrs by immunoblotting analysis; assay type: cell-based
[33] = molecular target: T1, Serine/threonine-protein kinase mTOR; assay: Inhibition of mTOR complex 1 in human U87MG cells assessed as suppression of S6K phosphorylation at T389 treated for 6 hrs by immunoblotting analysis; assay type: cell-based; conditions: U-87MG ATCC
[34] = molecular target: T1, Serine/threonine-protein kinase mTOR; assay: Inhibition of mTOR complex 2 in human U87MG cells assessed as suppression of AKT phosphorylation at S473 treated for 6 hrs by immunoblotting analysis; assay type: cell-based; conditions: U-87MG ATCC
[35] = molecular target: Phosphatidylinositol 4,5-bisphosphate 3-kinase catalytic subunit gamma isoform (Homo sapiens, UniProt P48736); assay: Inhibition of PI3Kgamma
Chain of Phosphatidylinositol 4,5-bisphosphate 3-kinase catalytic subunit gamma isoform (P48736 whole entry, canonical isoform): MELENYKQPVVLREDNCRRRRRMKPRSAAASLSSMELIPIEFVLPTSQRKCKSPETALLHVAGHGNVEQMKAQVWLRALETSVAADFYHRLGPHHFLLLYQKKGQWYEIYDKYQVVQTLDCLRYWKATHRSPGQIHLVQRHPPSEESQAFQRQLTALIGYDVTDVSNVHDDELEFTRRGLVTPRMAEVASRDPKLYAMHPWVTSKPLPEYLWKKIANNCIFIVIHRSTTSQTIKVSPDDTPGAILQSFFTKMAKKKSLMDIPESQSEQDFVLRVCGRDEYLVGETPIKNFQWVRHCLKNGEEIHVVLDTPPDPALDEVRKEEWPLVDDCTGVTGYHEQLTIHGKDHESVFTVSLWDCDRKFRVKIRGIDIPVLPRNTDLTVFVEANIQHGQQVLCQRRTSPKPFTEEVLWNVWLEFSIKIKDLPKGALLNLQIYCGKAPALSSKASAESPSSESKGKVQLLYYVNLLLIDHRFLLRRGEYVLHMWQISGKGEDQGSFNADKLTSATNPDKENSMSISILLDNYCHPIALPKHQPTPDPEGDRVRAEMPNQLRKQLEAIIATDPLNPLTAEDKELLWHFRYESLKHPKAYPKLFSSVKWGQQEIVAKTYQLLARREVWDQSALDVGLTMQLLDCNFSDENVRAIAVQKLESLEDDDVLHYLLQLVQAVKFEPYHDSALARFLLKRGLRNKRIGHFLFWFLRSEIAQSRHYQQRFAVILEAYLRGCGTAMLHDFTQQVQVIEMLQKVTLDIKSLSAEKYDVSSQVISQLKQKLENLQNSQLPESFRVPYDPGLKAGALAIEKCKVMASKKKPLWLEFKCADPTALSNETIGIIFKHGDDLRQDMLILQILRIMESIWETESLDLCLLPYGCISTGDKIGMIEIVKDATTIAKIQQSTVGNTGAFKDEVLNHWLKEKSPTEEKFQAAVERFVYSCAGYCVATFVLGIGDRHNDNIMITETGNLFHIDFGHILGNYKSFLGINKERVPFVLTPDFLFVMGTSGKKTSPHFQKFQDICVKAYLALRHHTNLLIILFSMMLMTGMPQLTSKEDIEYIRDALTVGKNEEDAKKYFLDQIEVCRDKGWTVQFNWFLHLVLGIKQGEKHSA

[36] = molecular target: Rho-associated protein kinase 1 (Homo sapiens, UniProt Q13464); assay: Inhibition of ROCK1 after 1 hr by mobility shift electrophoresis assay
[37] = molecular target: Ribosomal protein S6 kinase alpha-1 (Homo sapiens, UniProt Q15418); assay: Inhibition of RSK1 after 1 hr by mobility shift electrophoresis assay
[38] = molecular target: Proto-oncogene tyrosine-protein kinase Src (Homo sapiens, UniProt P12931); assay: Inhibition of SRC after 1 hr by mobility shift electrophoresis assay
Chain of Proto-oncogene tyrosine-protein kinase Src (P12931 2-536 limits assumed): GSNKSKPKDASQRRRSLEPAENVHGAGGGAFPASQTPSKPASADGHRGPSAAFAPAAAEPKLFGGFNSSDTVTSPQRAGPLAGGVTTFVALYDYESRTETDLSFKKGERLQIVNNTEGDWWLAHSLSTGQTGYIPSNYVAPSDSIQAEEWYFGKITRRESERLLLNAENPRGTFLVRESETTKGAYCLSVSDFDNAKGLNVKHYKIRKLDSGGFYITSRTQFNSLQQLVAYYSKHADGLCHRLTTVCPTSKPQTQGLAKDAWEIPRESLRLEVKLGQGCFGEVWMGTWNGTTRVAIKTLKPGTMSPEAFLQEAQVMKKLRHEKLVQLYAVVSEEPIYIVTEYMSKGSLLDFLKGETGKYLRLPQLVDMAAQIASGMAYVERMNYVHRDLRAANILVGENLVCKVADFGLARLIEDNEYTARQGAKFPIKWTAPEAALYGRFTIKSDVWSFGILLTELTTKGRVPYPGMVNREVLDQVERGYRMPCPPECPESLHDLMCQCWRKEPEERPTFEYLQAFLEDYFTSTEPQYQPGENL

[39] = molecular target: Protein kinase C beta type (Homo sapiens, UniProt P05771); assay: Inhibition of PKCbeta after 1 hr by mobility shift electrophoresis assay
[40] = molecular target: Protein kinase C alpha type (Homo sapiens, UniProt P17252); assay: Inhibition of PKCalpha after 1 hr by mobility shift electrophoresis assay
[41] = Inhibition of PIKK assessed as blockade of VP16-induced phosphorylation of ChK1 at S345 at 3 umol/L
[42] = Inhibition of PIKK assessed as blockade of VP16-induced phosphorylation of p53 at S15 at 3 umol/L

CNC(=O)Nc1ccc(-c2nc(N3CCOCC3)c3cnn(C4CCNCC4)c3n2)cc1
IC50 [1]: 1.4 nM
IC50 [2]: 1370 nM
half-life at 1 µM [3]: > 30 min

CCOC(=O)Nc1ccc(-c2nc(N3CCOCC3)c3cnn(C4CCN(Cc5ccccc5)CC4)c3n2)cc1
IC50 [1]: 46 nM
IC50 [4]: 631 nM
IC50 [2]: 3400 nM

COC(=O)Nc1ccc(-c2nc(N3CCOCC3)c3cnn(C4CCN(Cc5cccnc5)CC4)c3n2)cc1
half-life at 1 µM [3]: 14 min

O=C(Nc1ccncc1)Nc1ccc(-c2nc(N3CCOCC3)c3cnn(C4CCN(C(=O)c5cccnc5)CC4)c3n2)cc1
IC50 [1]: 0.83 nM
IC50 [4]: 548 nM
IC50 [2]: 150 nM
half-life at 1 µM [3]: 22 min

CNC(=O)Nc1ccc(-c2nc(N3CCOCC3)c3cnn(C4CCN(C(=O)OC)CC4)c3n2)cc1
Activity [5]: Active
Activity [6]: Active
Activity [7]: inactive
T/C [8]: 0.57

CNC(=O)Nc1ccc(-c2nc(N3CCOCC3)c3cnn(C4CCN(C)CC4)c3n2)cc1
IC50 [1]: 22 nM
IC50 [2]: 733 nM
half-life at 1 µM [3]: 2 min

COC(=O)N1CCC(n2ncc3c(N4CCOCC4)nc(-c4ccc(NC(=O)OCCO)cc4)nc32)CC1
IC50 [1]: 1 nM
IC50 [2]: 28 nM
half-life at 1 µM [3]: > 30 min

CNC(=O)Nc1ccc(-c2nc(N3CCOCC3)c3cnn(C4CCN(C(=O)NC)CC4)c3n2)cc1
IC50 ([1]; hek293): 2 nM
IC50 [2]: 2570 nM

CNC(=O)Nc1ccc(-c2nc(N3CCOCC3)c3cnn(C4CCN(Cc5cccnc5)CC4)c3n2)cc1
half-life at 1 µM [3]: 12 min

COC(=O)N1CCC(n2ncc3c(N4CCOCC4)nc(-c4ccc(NC(=O)Nc5ccncc5)cc4)nc32)CC1
IC50 ([1]; hek293): 0.3 nM
IC50 [4]: 18 nM
IC50 [2]: 60 nM
half-life at 1 µM [3]: 9 min

CC(=O)Nc1ccc(-c2nc(N3CCOCC3)c3cnn(C4CCN(Cc5cccnc5)CC4)c3n2)cc1
IC50 [1]: 7 nM
IC50 [2]: 66 nM
half-life at 1 µM [3]: 12 min

CNC(=O)Nc1ccc(-c2nc(N3CCOCC3)c3cnn(C4CCN(C(C)=O)CC4)c3n2)cc1
IC50 ([1]; hek293): 2.1 nM
IC50 [2]: 817 nM
half-life at 1 µM [3]: 27 min

CNC(=O)Nc1ccc(-c2nc(N3CCOCC3)c3cnn(C4CCN(C(=O)N(C)C)CC4)c3n2)cc1
IC50 [1]: 1.1 nM
IC50 [2]: 197 nM
half-life at 1 µM [3]: > 30 min

COC(=O)N1CCC(n2ncc3c(N4CCOCC4)nc(-c4ccc(NC(=O)Nc5ccc(N6CCN(C)CC6)cc5)cc4)nc32)CC1
solubility [9]: > 100 µg/mL

COC(=O)Nc1ccc(-c2nc(N3CCOCC3)c3cnn(C4CCN(C(=O)OC)CC4)c3n2)cc1
IC50 [1]: 4.3 nM
IC50 [4]: 1030 nM
IC50 [2]: 355 nM
half-life at 1 µM [3]: > 30 min
Activity [7]: inactive
Activity [10]: Active
Activity [11]: Active
IC50 [12]: > 50000 nM
IC50 [13]: > 50000 nM
IC50 [14]: > 50000 nM
IC50 [15]: > 50000 nM
IC50 [16]: > 50000 nM
IC50 [17]: > 50000 nM
IC50 [18]: > 50000 nM
IC50 [19]: > 50000 nM
IC50 [20]: > 50000 nM
IC50 [21]: > 50000 nM
IC50 [22]: > 50000 nM
IC50 [23]: > 50000 nM
IC50 [24]: > 50000 nM
IC50 [25]: > 50000 nM
IC50 [26]: > 50000 nM
IC50 [27]: > 50000 nM
IC50 [28]: > 50000 nM
IC50 [29]: > 50000 nM
T/C [8]: 0.62
T/C [30]: 0.14
Activity [31]: Dose-dependent effect
Activity [32]: Dose-dependent effect
Activity [33]: Dose-dependent effect
Activity [34]: Dose-dependent effect
IC50 [35]: 6320 nM
IC50 [36]: > 50000 nM
IC50 [37]: > 50000 nM
IC50 [38]: > 50000 nM
IC50 [39]: > 50000 nM
IC50 [40]: > 50000 nM
Activity [41]: inactive
Activity [42]: inactive

COC(=O)N1CCC(n2ncc3c(N4CCOCC4)nc(-c4ccc(NC(=O)Nc5ccc(CO)cc5)cc4)nc32)CC1
IC50 ([1]; hek293): 0.08 nM
IC50 [4]: 6 nM
IC50 [2]: < 1 nM
half-life at 1 µM [3]: 13 min

CCNC(=O)Nc1ccc(-c2nc(N3CCOCC3)c3cnn(C4CCN(C(=O)OC)CC4)c3n2)cc1
IC50 [1]: 0.32 nM
IC50 [2]: 55 nM
half-life at 1 µM [3]: > 30 min

Oc1cccc(-c2nc(N3CCOCC3)c3cnn(C4CCN(Cc5cccnc5)CC4)c3n2)c1
IC50 [1]: 9.6 nM
IC50 [2]: 53 nM
half-life at 1 µM [3]: 5 min

O=C(Nc1ccc(-c2nc(N3CCOCC3)c3cnn(C4CCN(Cc5cccnc5)CC4)c3n2)cc1)OCCO
half-life at 1 µM [3]: 6 min

CNC(=O)Nc1ccc(-c2nc(N3CCOCC3)c3cnn(C4CCN(Cc5ccccc5)CC4)c3n2)cc1
half-life at 1 µM [3]: 3 min

CC(=O)Nc1cccc(-c2nc(N3CCOCC3)c3cnn(C4CCN(Cc5ccccc5)CC4)c3n2)c1
IC50 [1]: 2450 nM

COC(=O)N1CCC(n2ncc3c(N4CCOCC4)nc(-c4ccc(NC(=O)Nc5cccnc5)cc4)nc32)CC1
IC50 [1]: 0.2 nM
IC50 [4]: 35 nM
IC50 [2]: 31 nM
half-life at 1 µM [3]: 24 min

Reference: ChEMBL document CHEMBL1151963 (J Med Chem, 2009)
